According to patent publication US8466145B2, “Dipeptidyl peptidase IV inhibitors” (Orchid Chemicals & Pharmaceuticals Limited, priority 2009, dated 2013):

What was measured:
DPP-IV = target: T1, DPP-IV (Homo sapiens, UniProt P27487); assay: DPP-IV inhibition, compounds screened by using human plasma; type: biochemical; settings: screened by using human plasma (starred examples); for inhibition at 0.3 µM: 300 nM compound concentration
T1 construct: from tissue; host or cells: human plasma (per the earlier reading of the assay)

[1] = target: T2, human recombinant Dipeptidyl peptidase 8 enzyme (hrDPP 8) (Homo sapiens, UniProt Q6V1X1); assay: DPP 8 assay, cleavage of H-Ala-Pro-AFC; type: biochemical; settings: selectivity for DPP-IV over DPP 8
T2 construct: purchased R&D systems
Protocol: DPP 8 activity was determined by the cleavage rate of 7-amino 4-fluoromethylcoumarin (AFC) from the substrate H-Ala-Pro-AFC. In brief, the assay was conducted by adding 30 ng of human recombinant Dipeptidyl peptidase 8 enzyme (hrDPP 8, available commercially from R&D systems) in 70 μL of the assay buffer (50 mM TRIS and 5 mM EDTA, pH 7.7) to a 96 well black flat bottom microtitre plate. Test compound was added as 10 μL additions to all wells except blank and total activity wells. After incubation of test substance with enzyme for 30 minutes at room temperature, 10 μL of 100 μM substrate H-Ala-Pro-AFC was added. After mixing, the plate was left for 30 minutes at room temperature. Then the reaction was terminated by addition of 10 μL of 25% Glacial Acetic Acid. Fluorescence was measured using Spectra Max Gemini XS (Molecular Devices, USA) at an excitation filter of 400 nm and emission filter of 505 nm.
Test compound dissolved in DMSO were diluted with assay buffer at different concentrations and tested in duplicates. Percentage inhibition was calculated with respect to total activity. IC50 value was calculated using Prism Software.

[2] = target: T3, human recombinant Dipeptidyl peptidase IV enzyme (hrDPP IV) (Homo sapiens, UniProt P27487); assay: DPP IV assay, cleavage of H-Gly-Pro-AMC by human recombinant DPP-IV enzyme; type: biochemical
T3 construct: purchased R&D systems
Outline: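 Human recombinant DPP-IV (3 ng) preincubated 60 min at room temperature with compound in 25 mM HEPES, 140 mM NaCl, 1% BSA, pH 7.8, in duplicate. Reaction with H-Gly-Pro-AMC (10 μL of 100 μM) for 20 min, stopped with acetic acid; AMC fluorescence 360/460 nm, IC50 from percent inhibition.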

[3] = target: T4, human recombinant Dipeptidyl peptidase 9 enzyme (hrDPP 9) (Homo sapiens, UniProt Q86TI2); assay: DPP 9 assay, cleavage of H-Gly-Pro-AMC; type: biochemical; settings: selectivity for DPP-IV over DPP 9
T4 construct: purchased R&D systems
Protocol: DPP 9 activity was determined by the cleavage rate of 7-amino 4-methylcoumarin (AMC) from the substrate H-Gly-Pro-AMC. In brief, the assay was conducted by adding 10 ng of human recombinant Dipeptidyl peptidase 9 enzyme (hrDPP 9, available commercially from R&D systems) in 70 μL of the assay buffer (50 mM TRIS and 5 mM EDTA, pH 7.7) to a 96 well black flat bottom microtitre plate. Test compound was added as 10 μL additions to all wells except blank and total activity wells. After incubation of test substance with enzyme for 30 minutes at room temperature, 10 μL of 100 μM substrate H-Gly-Pro-AMC was added. After mixing, the plate was left for 30 minutes at room temperature. Then the reaction was terminated by addition of 10 μL of 25% Glacial Acetic Acid. Fluorescence was measured using Spectra Max Gemini XS (Molecular Devices, USA) at an excitation filter of 360 nm and emission filter of 460 nm.
Test compound dissolved in DMSO were diluted with assay buffer at different concentrations and tested in duplicates. Percentage inhibition was calculated with respect to total activity. IC50 value was calculated by using Prism Software.

C57BL/6 mice = assay: Oral glucose tolerance test; type: in vivo; settings: compound 10 mg/kg; for Antihyperglycemic activity, reduction in AUC (blood glucose), Time 0.50 hr: glucose 2 g/kg challenge 0.50 hr after compound administration; for Antihyperglycemic activity, reduction in AUC (blood glucose), Time 6.00 hr: glucose 2 g/kg challenge 6.00 hr after compound administration, NA = No activity
Protocol: Effect of compound on glucose tolerance was examined in 7 week old C57BL/6 mice. Animals were kept for 18 h fasting and were challenged with glucose (2 g/kg) 30 min after compound (10 mg/kg) administration. Blood samples for glucose measurement were obtained by tail bleed pre dose and at serial time points after the glucose load (30, 60 and 120 minutes). Blood glucose estimation was done by using ContourTS active strips on glucometer (Bayer). To find the time response on glucose excursion, animals were challenged with glucose at different time point after compound administration (0.5, 2, 4, 6, 8, 12 or 24 hours) at blood glucose was measured at pre (0 minute) and post (30, 60 and 120 minutes) glucose load.
Results of blood glucose were expressed as area under curve (AUC) was calculated using Prism software.

T1 sequence (P27487 39-766 limits assumed): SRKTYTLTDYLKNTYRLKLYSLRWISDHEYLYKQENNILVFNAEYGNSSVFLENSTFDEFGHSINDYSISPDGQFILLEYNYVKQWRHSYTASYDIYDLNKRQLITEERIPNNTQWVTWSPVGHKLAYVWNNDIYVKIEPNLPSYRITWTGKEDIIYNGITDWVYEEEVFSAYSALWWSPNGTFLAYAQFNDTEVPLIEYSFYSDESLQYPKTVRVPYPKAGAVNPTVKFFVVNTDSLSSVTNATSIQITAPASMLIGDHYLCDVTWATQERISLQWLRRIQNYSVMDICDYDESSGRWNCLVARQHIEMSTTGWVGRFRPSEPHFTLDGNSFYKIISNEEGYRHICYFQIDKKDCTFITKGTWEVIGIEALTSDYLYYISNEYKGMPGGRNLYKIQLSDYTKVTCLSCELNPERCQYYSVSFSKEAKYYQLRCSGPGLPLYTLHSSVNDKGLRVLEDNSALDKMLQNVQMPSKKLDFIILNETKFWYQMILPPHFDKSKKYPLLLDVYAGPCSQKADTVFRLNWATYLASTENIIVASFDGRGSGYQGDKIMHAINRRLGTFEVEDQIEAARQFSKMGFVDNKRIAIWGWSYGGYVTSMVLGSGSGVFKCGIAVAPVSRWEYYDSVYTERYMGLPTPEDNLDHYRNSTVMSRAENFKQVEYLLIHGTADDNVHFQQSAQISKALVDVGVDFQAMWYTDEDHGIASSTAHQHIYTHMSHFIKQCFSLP
T2 sequence (Q6V1X1 whole entry): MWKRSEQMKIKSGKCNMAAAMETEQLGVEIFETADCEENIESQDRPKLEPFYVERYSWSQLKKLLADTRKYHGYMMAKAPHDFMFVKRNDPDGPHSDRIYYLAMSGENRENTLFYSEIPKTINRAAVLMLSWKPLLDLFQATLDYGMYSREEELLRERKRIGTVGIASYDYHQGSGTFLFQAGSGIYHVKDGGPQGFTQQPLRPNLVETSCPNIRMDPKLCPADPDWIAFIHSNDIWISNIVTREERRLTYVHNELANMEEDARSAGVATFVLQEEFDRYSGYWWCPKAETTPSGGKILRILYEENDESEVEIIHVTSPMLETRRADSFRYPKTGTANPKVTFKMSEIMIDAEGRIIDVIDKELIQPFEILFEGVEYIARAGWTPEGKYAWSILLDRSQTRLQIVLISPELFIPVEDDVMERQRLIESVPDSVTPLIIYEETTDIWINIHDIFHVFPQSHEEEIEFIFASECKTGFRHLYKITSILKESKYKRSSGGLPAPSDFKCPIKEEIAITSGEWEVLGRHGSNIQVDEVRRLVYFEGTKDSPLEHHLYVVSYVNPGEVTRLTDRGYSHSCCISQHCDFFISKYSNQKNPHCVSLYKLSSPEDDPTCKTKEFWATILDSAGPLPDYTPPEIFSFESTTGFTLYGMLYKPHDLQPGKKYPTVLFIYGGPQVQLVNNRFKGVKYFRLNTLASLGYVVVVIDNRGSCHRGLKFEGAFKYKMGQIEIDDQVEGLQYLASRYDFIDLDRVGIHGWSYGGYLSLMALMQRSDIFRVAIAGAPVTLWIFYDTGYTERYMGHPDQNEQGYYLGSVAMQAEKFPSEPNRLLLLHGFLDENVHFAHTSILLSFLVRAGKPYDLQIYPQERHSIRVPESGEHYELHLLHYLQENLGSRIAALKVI
T3 sequence (P27487 whole entry): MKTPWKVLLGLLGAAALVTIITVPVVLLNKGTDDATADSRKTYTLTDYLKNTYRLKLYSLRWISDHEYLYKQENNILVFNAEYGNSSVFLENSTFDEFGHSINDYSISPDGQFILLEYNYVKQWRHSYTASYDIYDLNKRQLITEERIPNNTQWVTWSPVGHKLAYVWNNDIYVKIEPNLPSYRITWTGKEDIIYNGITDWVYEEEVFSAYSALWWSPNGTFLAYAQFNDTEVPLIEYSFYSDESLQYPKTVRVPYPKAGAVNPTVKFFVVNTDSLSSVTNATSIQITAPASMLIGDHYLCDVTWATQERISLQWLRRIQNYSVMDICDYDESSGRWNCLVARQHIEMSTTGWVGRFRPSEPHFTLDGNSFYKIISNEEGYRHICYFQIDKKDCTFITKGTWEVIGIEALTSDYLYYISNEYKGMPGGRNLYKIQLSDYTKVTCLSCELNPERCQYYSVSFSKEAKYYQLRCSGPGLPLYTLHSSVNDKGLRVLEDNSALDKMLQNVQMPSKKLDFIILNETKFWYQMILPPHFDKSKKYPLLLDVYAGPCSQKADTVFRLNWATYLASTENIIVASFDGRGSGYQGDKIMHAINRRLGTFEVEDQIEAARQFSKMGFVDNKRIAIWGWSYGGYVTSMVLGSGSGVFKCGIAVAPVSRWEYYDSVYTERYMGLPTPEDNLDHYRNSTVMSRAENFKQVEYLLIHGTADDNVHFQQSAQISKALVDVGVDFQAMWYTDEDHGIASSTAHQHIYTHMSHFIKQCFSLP
T4 sequence (Q86TI2 whole entry): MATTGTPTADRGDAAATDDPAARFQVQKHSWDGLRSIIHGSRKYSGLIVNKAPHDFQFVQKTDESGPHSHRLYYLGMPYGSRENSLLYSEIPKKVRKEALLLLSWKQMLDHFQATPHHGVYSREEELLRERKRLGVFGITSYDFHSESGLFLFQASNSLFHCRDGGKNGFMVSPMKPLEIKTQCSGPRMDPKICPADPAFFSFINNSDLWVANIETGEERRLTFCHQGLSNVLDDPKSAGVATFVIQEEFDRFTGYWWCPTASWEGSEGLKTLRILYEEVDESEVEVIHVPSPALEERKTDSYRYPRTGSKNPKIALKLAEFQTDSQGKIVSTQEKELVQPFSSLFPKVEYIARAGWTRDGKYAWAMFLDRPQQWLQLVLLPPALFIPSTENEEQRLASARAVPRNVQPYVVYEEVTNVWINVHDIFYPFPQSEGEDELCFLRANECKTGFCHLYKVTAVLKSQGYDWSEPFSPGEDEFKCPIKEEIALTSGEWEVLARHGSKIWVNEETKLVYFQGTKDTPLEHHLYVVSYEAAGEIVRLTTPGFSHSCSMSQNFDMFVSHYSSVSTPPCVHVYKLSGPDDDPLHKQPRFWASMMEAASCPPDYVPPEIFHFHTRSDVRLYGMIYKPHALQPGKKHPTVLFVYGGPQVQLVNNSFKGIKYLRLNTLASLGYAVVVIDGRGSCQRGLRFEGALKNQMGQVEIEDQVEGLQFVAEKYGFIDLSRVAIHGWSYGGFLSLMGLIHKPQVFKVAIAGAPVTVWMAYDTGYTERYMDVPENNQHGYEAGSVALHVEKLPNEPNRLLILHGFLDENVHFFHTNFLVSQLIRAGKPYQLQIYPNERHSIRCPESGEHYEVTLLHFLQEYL

CC1(C)[C@@H](Cn2cncn2)CC[C@@]1(C)NCC(=O)N1C[C@H](F)C[C@H]1C#N [Example 2, (2S,4R)-1-(2-((1R,3S)-3-((1H-1,2,4-Triazol-1-yl)methyl)-1,2,2-trimethylcyclopentylamino)acetyl)-4-fluoropyrrolidine-2-carbonitrilemethane sulfonate]
inhibition at 0.3 µM (DPP-IV): 10.5%

CC1(C)[C@H](Cn2cncn2)CC[C@]1(C)NCC(=O)N1C[C@@H](F)C[C@H]1C#N [Example 3, (2S,4S)-1-(2-((1S,3R)-3-((1H-1,2,4-Triazol-1-yl)methyl)-1,2,2-trimethylcyclopentylamino)acetyl)-4-fluoropyrrolidine-2-carbonitrile]
Selectivity (Fold) DPP 8 [1]: >27000 Fold
IC50 [2]: 11 ± 0.16 nM
melting point: 132 to 135 °C
Selectivity (Fold) DPP 9 [3]: >5000 Fold
Antihyperglycemic activity, reduction in AUC (blood glucose), Time 0.50 hr (C57BL/6 mice): 53.89%

CC1(C)[C@H](Cn2cncn2)CC[C@]1(C)NCC(=O)N1C[C@H](F)C[C@H]1C#N [Example 5, (2S,4R)-1-(2-((1S,3R)-3-((1H-1,2,4-Triazol-1-yl)methyl)-1,2,2-trimethylcyclopentylamino)acetyl)-4-fluoropyrrolidine-2-carbonitrilemethanesulfonate]
inhibition at 0.3 µM (DPP-IV): 4.1%

CC1(C)[C@@H](CNC(=O)c2ccccc2F)CC[C@@]1(C)NCC(=O)N1C[C@@H](F)C[C@H]1C#N [Example 21, N-(((1S,3R)-3-(2-((2S,4S)-2-Cyano-4-fluoropyrrolidin-1-yl)-2-oxoethylamino)-2,2,3-trimethylcyclopentyl)methyl)-2-fluorobenzamide]
IC50 (DPP-IV): 330 nM
melting point: 123 to 127 °C

CC1(C)[C@H](CN2CCCS2(=O)=O)CC[C@]1(C)NCC(=O)N1C[C@@H](F)C[C@H]1C#N [Example 29, (2S,4S)-1-(2-((1S,3R)-3-[(1,1-Dioxidoisothiazolidin-2-yl)methyl]-1,2,2-trimethyleyclopentylamino)acetyl)-4-fluoropyrrolidine-2-carbonitrile]
Selectivity (Fold) DPP 8 [1]: >13000 Fold
IC50 [2]: 7.61 nM
melting point: 171 to 174 °C
Selectivity (Fold) DPP 9 [3]: >1100 Fold
Antihyperglycemic activity, reduction in AUC (blood glucose), Time 0.50 hr (C57BL/6 mice): 42.52%
Antihyperglycemic activity, reduction in AUC (blood glucose), Time 6.00 hr (C57BL/6 mice): 20.21%

CC1(C)[C@H](Cn2cnnn2)CC[C@]1(C)NCC(=O)N1C[C@@H](F)C[C@H]1C#N [Example 32, (2S,4S)-1-(2-((1S,3R)-3-((1H-Tetrazol-1-yl)methyl)-1,2,2-trimethylcyclopentylamino)acetyl)-4-fluoropyrrolidine-2-carbonitrile]
Selectivity (Fold) DPP 8 [1]: >9500 Fold
IC50 [2]: 6.01 nM
melting point: 151 to 154 °C
Selectivity (Fold) DPP 9 [3]: >1900 Fold
Antihyperglycemic activity, reduction in AUC (blood glucose), Time 0.50 hr (C57BL/6 mice): 17.80%

CC1(C)[C@H](CN2CCOCC2)CC[C@]1(C)NCC(=O)N1C[C@@H](F)C[C@H]1C#N [Example 34, (2S,4S)-4-Fluoro-1-(2-((1S,3R)-1,2,2-trimethyl-3-(morpholinomethyl)cyclopentylamino)acetyl)pyrrolidine-2-carbonitrile]
Selectivity (Fold) DPP 8 [1]: >10000 Fold
IC50 [2]: 8.94 nM
melting point: 163 to 166 °C
Selectivity (Fold) DPP 9 [3]: >1500 Fold
Antihyperglycemic activity, reduction in AUC (blood glucose), Time 0.50 hr (C57BL/6 mice): 54.32%

CC1(C)[C@@H](c2nc(-c3ccc(F)cc3)no2)CC[C@@]1(C)NCC(=O)N1C[C@@H](F)C[C@H]1C#N [Example 48, (2S,4S)-4-Fluoro-1-(2-((1R,3S)-3-(3-(4-fluorophenyl)-1,2,4-oxadiazol-5-yl)-1,2,2-trimethyleyclopentylamino)acetyl)pyrrolidine-2-carbonitrile]
inhibition at 0.3 µM (DPP-IV): 4.46%

CC1(C)[C@H](Cc2noc(CO)n2)CC[C@]1(C)NCC(=O)N1C[C@@H](F)C[C@H]1C#N [Example 60, (2S,4S)-4-Fluoro-1-(2-((1S,3S)-3-((5-(hydroxymethyl)-1,2,4-oxadiazol-3-yl)methyl)-1,2,2-trimethylcyclopentylamino)acetyl)pyrrolidine-2-carbonitrile]
Selectivity (Fold) DPP 8 [1]: >19000 Fold
IC50 [2]: 6.59 nM
inhibition at 0.3 µM ([2]; 300 nM compound concentration): 94.7%
melting point: 147 to 149 °C
Selectivity (Fold) DPP 9 [3]: >7000 Fold
Antihyperglycemic activity, reduction in AUC (blood glucose), Time 0.50 hr (C57BL/6 mice): 47.70%
Antihyperglycemic activity, reduction in AUC (blood glucose), Time 6.00 hr (C57BL/6 mice): 51.55%
Antihyperglycemic activity, reduction in AUC (blood glucose), Time 12.00 hr (C57BL/6 mice; glucose 2 g/kg challenge 12.00 hr after compound administration): 29.62%

CC1(C)[C@@H](NCC(=O)N2C[C@@H](F)C[C@H]2C#N)CC[C@@]1(C)c1nc(-c2ccc(F)cc2)no1 [Example 65, (2S,4S)-4-Fluoro-1-(2-((1S,3R)-3-(3-(4-fluorophenyl)-1,2,4-oxadiazol-5-yl)-2,2,3-trimethylcyclopentylamino)acetyl)pyrrolidine-2-carbonitrile]
IC50 (DPP-IV): 238 nM

CC1(C)[C@@H](NCC(=O)N2CCC[C@H]2C#N)CC[C@@]1(C)c1nc(-c2ccc(F)cc2)no1 [Example 66, (S)-1-(2-((1S,3R)-3-(3-(4-Fluorophenyl)-1,2,4-oxadiazol-5-yl)-2,2,3-trimethylcyclopentylamino)acetyl)pyrrolidine-2-carbonitrile methanesulfonate]
inhibition at 0.3 µM (DPP-IV): 23.2%

CC1(C)[C@@H](NCC(=O)N2C[C@@H](F)C[C@H]2C#N)CC[C@@]1(C)c1nc(-c2ccncc2)no1 [Example 70, (2S,4S)-4-Fluoro-1-(2-((1S,3R)-2,2,3-trimethyl-3-(3-(pyridin-4-yl)-1,2,4-oxadiazol-5-yl)cyclopentylamino)acetyl)pyrrolidine-2-carbonitrile]
Selectivity (Fold) DPP 8 [1]: >550 Fold
IC50 [2]: 26.7 nM
melting point: 149 to 153 °C
Selectivity (Fold) DPP 9 [3]: >25 Fold

CC1(C)[C@@H](NCC(=O)N2C[C@@H](F)C[C@H]2C#N)CC[C@@]1(C)c1nc(-c2cnccn2)no1 [Example 72, (2S,4S)-4-Fluoro-1-(2-((1S,3R)-2,2,3-trimethyl-3-(3-(pyrazin-2-yl)-1,2,4-oxadiazol-5-yl)cyclopentylamino)acetyl)pyrrolidine-2-carbonitrile]
Selectivity (Fold) DPP 8 [1]: >1250 Fold
IC50 [2]: 32.3 nM
melting point: 65 to 70 °C
Selectivity (Fold) DPP 9 [3]: >35 Fold

Cc1noc([C@@]2(C)CC[C@@H](NCC(=O)N3C[C@@H](F)C[C@H]3C#N)C2(C)C)n1 [Example 73, (2S,4S)-4-Fluoro-1-(2-((1R,3S)-2,2,3-trimethyl-3-(3-methyl-1,2,4-oxadiazol-5-yl)cyclopentylamino)acetyl)pyrrolidine-2-carbonitrile]
Selectivity (Fold) DPP 8 [1]: >2300 Fold
IC50 [2]: 41 nM
melting point: 144 to 147 °C
Selectivity (Fold) DPP 9 [3]: >150 Fold

Cc1noc([C@]2(C)CC[C@H](NCC(=O)N3C[C@@H](F)C[C@H]3C#N)C2(C)C)n1 [Example 74, (2S,4S)-4-Fluoro-1-(2-((1S,3R)-2,2,3-trimethyl-3-(3-methyl-1,2,4-oxadiazol-5-yl)cyclopentylamino)acetyl)pyrrolidine-2-carbonitrile]
Selectivity (Fold) DPP 8 [1]: >900 Fold
IC50 [2]: 54.7 nM
melting point: 137 to 141 °C
Selectivity (Fold) DPP 9 [3]: >25 Fold
